Measurements as given in the METLIN SMRT retention time set (Domingo-Almenara et al. 2019).

test: gradient 5% acetonitrile 3 min, to 50% in 2 min, to 85% in 15 min, held 3 min, 100 µL/min; settings: column: Zorbax Extend-C18 2.1 x 50 mm; eluents: water / acetonitrile, 0.1% formic acid
Outline: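 Each retention time is based on an adduct peak selected computationally and verified by manual inspection. Measurements used HPLC–quadrupole time-of-flight mass spectrometry in positive and negative ionization mode on mixtures of ~100 pure standards. Chromatography ran on a Zorbax Extend-C18 column (2.1 × 50 mm, 1.8 μm) at 100 μL/min with water and acetonitrile, each containing 0.1% formic acid, and dead and dwell volumes of 40 μL and 900 μL.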

| SMILES | RP-LC retention time |
| --- | --- |
| CC(C)Cc1nc(-c2ccccc2)oc1CC(=O)NCc1cccc(Cl)c1 | 1090 s |
| CCNC(=O)N1CCC(OC(C)=O)CC1 | 586 s |
| CN(C)c1cccc(C(=O)NC2CCN(c3cc(-c4ccccc4)[nH]n3)C2)c1 (stereo not drawn) | 664 s |
| Cn1cc2c3c(cccc31)CN(C(=O)c1ccc(Br)cc1)CC2 | 1030 s |
| COc1cccc(NC(=O)C2CCCN(S(=O)(=O)c3c[nH]c(C(=O)N4CCCCCC4)c3)C2)c1 (stereo not drawn) | 882 s |
| CSc1ccc(-c2nc3c(C)cccn3c2Nc2ccc3c(c2)OCCO3)cc1 | 749 s |
| Cn1nc(C(=O)Nc2ccccc2)c2c1CCN(C(=O)CCC(=O)NC1CC1)C2 | 678 s |
| CCCN(C(=O)CC)c1nc(-c2ccc(C)cc2)cs1 | 1330 s |
| Cc1nc(CC(=O)NC(C)c2ccccc2)sc1C(=O)NCC(C)C (stereo not drawn) | 763 s |
| Cc1sc(NC(=O)Cc2csc(-c3ccccc3)n2)nc1-c1ccccc1 | 1160 s |
| COC(=O)c1cccc(C(=O)Nc2cccc(OC)c2)n1 | 817 s |
| Cc1cc(N2CCN(C(=O)c3ccc(N(C)C)cc3)CC2)nc2nnc(C)n12 | 579 s |
| COc1ccc2[nH]c(=O)c(CCC(=O)NCc3ccncc3)cc2c1 | 574 s |
| CCOCC(=O)N1CCC(c2nc(CNC(=O)C3CCC3)cs2)CC1 | 623 s |
| CCCS(=O)(=O)N1CCCC(Cn2cc(COc3ccc4c(c3)CCC4)nn2)C1 (stereo not drawn) | 997 s |
| CC(C)(C)OC(=O)N1CCN(c2ncnc(N)c2[N+](=O)[O-])CC1 | 691 s |
| C=CCN1C(=O)COc2ccc(-c3csc(NC(=O)c4cccc(Cl)c4)n3)cc21 | 1070 s |
| Cc1nc2c(sc3nc(-c4ccccc4)ccc32)c(=O)n1CC(=O)Nc1ccccc1Cl | 1090 s |
| CCOc1cc(C(=O)N2CCN(c3cc(-c4ccc(Cl)cc4)[nH]n3)CC2)cc(OCC)c1OCC | 997 s |
| CN(CCc1noc(-c2ccc(C(=O)N3CCOCC3)cc2)n1)C(=O)C1CCCCC1 | 752 s |
| Cc1ccc(NC(=O)Nc2cccn3ncnc23)cc1 | 776 s |
| CC(=O)N1CCCC(CCc2nnc(C3CCOCC3)o2)C1 (stereo not drawn) | 608 s |
| CS(=O)(=O)N[C@H]1C[C@@H]2C[C@H]1CN2C(=O)c1ccc(C(F)(F)F)s1 | 663 s |

| SMILES | RP-LC retention time |
| --- | --- |
| CNC(=O)N1CCCC(c2cccc(C(=O)NCc3ccc(N(C)C)cc3)c2)C1 (stereo not drawn) | 607 s |
| COc1ccc(Cc2nnc3sc(Cc4ccc(OC)c(OC)c4)nn23)cc1 | 815 s |
| Cc1cc(C)c(S(=O)(=O)N2CCn3c(nn(CC4CC4)c3=O)C2)cc1C | 873 s |
| COc1ccc(CNC(=O)c2cn3ccc(C)cc3n2)cc1 | 545 s |
| Cc1cccc(CNC(=O)C2CCN(S(=O)(=O)c3ccc(-c4cc(C)[nH]n4)o3)CC2)c1 | 816 s |
| CC(C)Oc1cccnc1N(C)C1CCN(Cc2ccccc2)CC1 | 627 s |
| O=C(C1CCCO1)N1CCC(Cc2nncn2CC2CC2)CC1 (stereo not drawn) | 578 s |
| CC1=C(c2cccc(Cl)c2)S(=O)(=O)N=C1N1CCCN(C(=O)C2CC2)CC1 | 763 s |
| O=C(NCc1cccs1)C1CCN(C(=O)c2ncn3c2COC(c2ccc(F)cc2)C3)CC1 (stereo not drawn) | 736 s |
| COc1ccc(-c2noc(C3CCCN3C(=O)Nc3cccc(Cl)c3)n2)cc1 (stereo not drawn) | 1020 s |
| O=C(OC1C[C@@H]2CC3C[C@@H](C1)N2CC3=O)c1c[nH]c2ccccc12 (stereo partly drawn) | 638 s |
| Cn1cc(-c2ccc3ncc(Cc4ccc5ncccc5c4)n3n2)cn1 | 582 s |
| COCCCNC(=O)Cn1nc(-n2c(C)ccc2C)c2c(C)cc(C)nc21 | 874 s |
| CCn1ccc2oc(C)c(C(=O)N3CCN(c4cccc(Cl)c4)CC3)c2c1=O | 896 s |
| O=C(Nc1ccccc1F)N1CCN(Cc2nc3cc(Cl)ccc3o2)CC1 | 737 s |
| O=C1CCCN1c1ccc(Cn2nc3ccc(-c4ccc(Cl)cc4)nn3c2=O)cc1 | 742 s |
| CCc1nncn1C1CCN(C(=O)Nc2ccc(F)c(Cl)c2)C1 (stereo not drawn) | 661 s |
| c1ccc(Cc2nn3c(CSc4ccccc4)nnc3s2)cc1 | 927 s |
| COc1ccc(-c2ncn3c2C(=O)N(CC(=O)O)CC3)cc1 | 567 s |
| COc1cccc(NC(=O)N2CCc3nc(-c4ccccc4)ncc3C2)c1 | 884 s |
| COc1ccc(F)cc1S(=O)(=O)N1CCn2c(nn(C)c2=O)C1 | 654 s |
| Cc1ccccc1Oc1nccn2c(=O)n(CC(=O)Nc3ccc(Cl)c(Cl)c3)nc12 | 996 s |
| COc1ccc(-c2cn3c(CC(=O)NCCc4cccs4)csc3n2)cc1OC | 692 s |

| SMILES | RP-LC retention time |
| --- | --- |
| O=C(NCc1ccccc1F)c1nc(N2CCOCC2)c2ccccc2n1 | 678 s |
| CCNC(=O)C1CCN(S(C)(=O)=O)c2cc(Cl)ccc2O1 (stereo not drawn) | 736 s |
| COC(=O)c1cc(Nc2ccc(OC)cc2OC)c2ccccc2n1 | 581 s |
| COc1cccc(NC(=O)Cn2nc3cc(C)nc(Nc4ccc(C)c(F)c4)n3c2=O)c1 | 1100 s |
| CCCC(=O)Nc1ccc2c(c1)CN(C(=O)c1ccc(Cl)cc1)C(C(=O)N(C)C)C2 (stereo not drawn) | 748 s |
| COc1cccc(NC(=O)Cn2c(=O)cc(-c3nc(C(C)C)no3)c3ccccc32)c1 | 982 s |
| CCCNC(=O)C1CCN(c2cncnc2N2CCCCC2)CC1 | 620 s |
| O=C(NC1CCCCCCC1)c1nnc(-c2ccc(S(=O)(=O)N3CCOCC3)cc2)o1 | 991 s |
| O=C(CN1CC=C(c2cnn(-c3ccc(F)cc3)c2)CC1)N1CCN(c2ccccn2)CC1 | 566 s |
| Cn1cc(CC(=O)NCc2ccc(Br)cc2)c2cccnc21 | 736 s |
| Cc1ccc(S(=O)(=O)c2nc(C)oc2NCc2ccco2)cc1 | 814 s |
| CCc1ccc(N2C(=O)CN(S(C)(=O)=O)CC2(C)C(=O)NC2CCCCCCC2)cc1 (stereo not drawn) | 1000 s |
| O=C(CCC1CCCC1)Nc1nc(-c2ccccc2)cs1 | 1180 s |
| Cc1ccc2c(c1)C(=O)NC1(CCN(C(=O)NC3CCCCC3)CC1)N2C | 763 s |
| Cc1ccccc1-n1ncc2c(C)nn(CC(=O)Nc3cccc(C(F)(F)F)c3)c(=O)c21 | 941 s |
| CCC1CN2C=NC(N3CCN(C(=O)Nc4ccc(OC)cc4)CC3)=CC2=N1 (stereo not drawn) | 600 s |
| CCc1noc2nc(C)n(CC(=O)NCc3ccccc3F)c(=O)c12 | 788 s |
| COCCNC(=O)c1ccc2c(c1)CCCN2S(C)(=O)=O | 649 s |
| COc1ccc(S(=O)(=O)N2CCc3nc(CNC(=O)C4CCC4)n(C)c3C2)cc1 | 628 s |
| Cc1ccc(-c2c(C)noc2C)cc1S(=O)(=O)Nc1ccccc1 | 932 s |
| Cc1cc(NC(=O)C(=O)NCC2(c3ccc(F)cc3)CCOCC2)no1 | 736 s |
| Cn1c(=O)c2ccn(CC(=O)N3CCN(c4ccccc4F)CC3)c2n(C)c1=O | 851 s |
